20 molecules from ChEMBL document CHEMBL1201862, “PubChem BioAssay data set” (2004) can be followed below.

Data set [1] can be described thus: Luminescence Cell-Based Dose Retest to Confirm Inhibitors of Cancer Stem Cells. [Related pubchem assays (depositor defined):AID2717, AID2721]. Conditions: Homo sapiens. It counts as functional.
Data set [2] in a line: viability loss of HMLE_sh_eGFP cells – cell-based, luminescence, counter-screen for HMLE_sh_ECad selective toxicity project, dose response (AID 463074).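 Note: HMLE human mammary epithelial cells expressing control shRNA against eGFP.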 It counts as functional, Homo sapiens.
For data set [3], the target named is Trypsin (Sus scrofa, UniProt P00761). The data set can be described thus: trypsin protease activity blockade – biochemical, quenched peptide fluorescence, cherry-pick, selectivity assay for Rce1 protease inhibitor project, dose response (AID 488789).
Sequence of Trypsin (P00761 whole entry): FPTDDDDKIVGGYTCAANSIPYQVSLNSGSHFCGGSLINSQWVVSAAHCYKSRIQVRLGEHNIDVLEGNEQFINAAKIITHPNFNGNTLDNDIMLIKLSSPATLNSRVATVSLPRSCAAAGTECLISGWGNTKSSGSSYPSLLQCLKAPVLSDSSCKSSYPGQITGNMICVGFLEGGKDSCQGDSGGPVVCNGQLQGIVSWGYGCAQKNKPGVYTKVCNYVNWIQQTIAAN
Data set [4] concerns the target T1, CAAX prenyl protease 2 (Saccharomyces cerevisiae S288c, UniProt Q03530).
T1 sequence (Q03530 whole entry): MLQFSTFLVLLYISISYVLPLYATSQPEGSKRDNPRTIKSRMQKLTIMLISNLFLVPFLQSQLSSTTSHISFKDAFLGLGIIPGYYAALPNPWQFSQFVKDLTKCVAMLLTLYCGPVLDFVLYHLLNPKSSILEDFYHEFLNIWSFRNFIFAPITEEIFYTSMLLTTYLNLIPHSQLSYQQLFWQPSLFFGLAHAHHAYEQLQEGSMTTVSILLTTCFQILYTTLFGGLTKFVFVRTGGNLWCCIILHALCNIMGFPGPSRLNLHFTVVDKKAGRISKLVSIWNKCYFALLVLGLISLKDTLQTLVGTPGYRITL
It counts as biochemical.

The target of data set [5] is Peroxisome proliferator-activated receptor gamma/Nuclear receptor coactivator 1 (Homo sapiens, UniProt P37231). The data set can be described thus: TR-FRET dose response biochemical High Throughput Screening assay for agonists of the steroid receptor coactivator 1 (SRC-1) recruitment by the peroxisome proliferator-activated receptor gamma (PPAR gamma): non-selective agonists. [Related pubchem assays (depositor defined):AID1300, AID1808, AID504735, AID631]. It counts as protein assay. On the technique in general: TR-FRET usually uses a lanthanide donor and a delayed reading to cut background.

Data set [6] deals with Peroxisome proliferator-activated receptor gamma/Nuclear receptor coactivator 3 (Homo sapiens, UniProt P37231). The data set can be described thus: TR-FRET dose response biochemical High Throughput Screening assay for agonists of the steroid receptor coactivator 3 (SRC-3) recruitment by the peroxisome proliferator-activated receptor gamma (PPAR gamma): non-selective agonists. [Related pubchem assays: 1301 (Confirmation screen.), 1048 (Primary screen.)]. It counts as functional.

Data set [7] addresses Peroxisome proliferator-activated receptor gamma/Nuclear receptor coactivator 2 (Homo sapiens, UniProt P37231). The data set is described as follows: TR-FRET dose response biochemical High Throughput Screening assay for agonists of the steroid receptor coactivator 2 (SRC-2) recruitment by the peroxisome proliferator-activated receptor gamma (PPAR gamma): non-selective agonists. [Related pubchem assays: 1297, 1032 ]. It counts as functional.

The target of data set [8] is T2, Mannose-6-phosphate isomerase (Homo sapiens, UniProt P34949).
T2 sequence (P34949 whole entry): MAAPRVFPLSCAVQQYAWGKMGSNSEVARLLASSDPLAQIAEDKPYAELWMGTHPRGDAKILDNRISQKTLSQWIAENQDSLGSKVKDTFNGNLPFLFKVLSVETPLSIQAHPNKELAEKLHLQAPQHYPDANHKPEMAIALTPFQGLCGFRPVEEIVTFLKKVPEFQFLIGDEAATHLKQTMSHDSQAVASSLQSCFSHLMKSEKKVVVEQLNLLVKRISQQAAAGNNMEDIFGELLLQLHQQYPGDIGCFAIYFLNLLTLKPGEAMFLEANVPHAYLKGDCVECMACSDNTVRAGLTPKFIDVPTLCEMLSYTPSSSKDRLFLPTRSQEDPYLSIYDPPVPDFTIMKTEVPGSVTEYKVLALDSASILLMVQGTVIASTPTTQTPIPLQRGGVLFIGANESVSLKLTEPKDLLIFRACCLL
The data set is described as follows: phosphomannose isomerase inhibition – biochemical, fluorescence intensity, confirmation (AID 1535).

Data set [9] concerns the target T3, Phosphomannomutase 2 (Homo sapiens, UniProt O15305).
T3 sequence (O15305 whole entry): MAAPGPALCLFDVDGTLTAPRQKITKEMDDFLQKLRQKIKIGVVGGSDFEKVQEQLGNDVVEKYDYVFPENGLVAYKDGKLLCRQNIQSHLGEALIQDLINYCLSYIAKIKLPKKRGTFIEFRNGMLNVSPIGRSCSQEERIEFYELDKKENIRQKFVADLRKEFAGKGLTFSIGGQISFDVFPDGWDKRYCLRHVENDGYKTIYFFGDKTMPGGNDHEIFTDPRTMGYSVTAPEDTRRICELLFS
The data set is described as follows: Counter screen SAR assay for PMM2 inhibitors via a fluorescence intensity assay. [Related pubchem assays (depositor defined):AID1545, AID1574].

In data set [10] the target is T4, Phosphoethanolamine/phosphocholine phosphatase (Homo sapiens, UniProt Q8TCT1).
T4 sequence (Q8TCT1 whole entry): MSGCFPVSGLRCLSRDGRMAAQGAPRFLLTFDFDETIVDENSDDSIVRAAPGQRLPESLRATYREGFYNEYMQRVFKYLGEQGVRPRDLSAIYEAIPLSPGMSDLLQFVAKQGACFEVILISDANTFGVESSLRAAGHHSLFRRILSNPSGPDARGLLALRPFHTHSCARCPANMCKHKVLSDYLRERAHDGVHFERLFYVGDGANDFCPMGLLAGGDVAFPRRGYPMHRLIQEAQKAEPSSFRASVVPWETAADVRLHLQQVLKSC
The data set can be described thus: SAR assay for compounds that inhibit PHOSPHO1. [Related pubchem assays (depositor defined):AID1545, AID1565, AID1574].

Data set [11] deals with Intestinal-type alkaline phosphatase (Mus musculus, UniProt P24822). The data set can be described thus: PubChem AID 488785. It counts as functional.
Sequence of Intestinal-type alkaline phosphatase (Mus musculus, UniProt P24822) (P24822 whole entry): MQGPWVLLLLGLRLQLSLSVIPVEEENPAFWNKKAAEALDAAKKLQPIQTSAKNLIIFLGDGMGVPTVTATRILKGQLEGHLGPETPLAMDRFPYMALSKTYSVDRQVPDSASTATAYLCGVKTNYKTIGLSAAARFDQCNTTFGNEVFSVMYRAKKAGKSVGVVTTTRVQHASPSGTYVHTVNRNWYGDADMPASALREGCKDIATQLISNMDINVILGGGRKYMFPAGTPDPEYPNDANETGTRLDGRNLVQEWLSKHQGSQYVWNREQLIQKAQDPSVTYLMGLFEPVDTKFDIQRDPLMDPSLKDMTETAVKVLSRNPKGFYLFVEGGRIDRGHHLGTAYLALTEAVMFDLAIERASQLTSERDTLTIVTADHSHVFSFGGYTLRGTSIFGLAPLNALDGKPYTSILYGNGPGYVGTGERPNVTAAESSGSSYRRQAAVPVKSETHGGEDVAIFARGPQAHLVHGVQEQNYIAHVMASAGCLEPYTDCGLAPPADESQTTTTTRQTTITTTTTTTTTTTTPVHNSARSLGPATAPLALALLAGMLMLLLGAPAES
In data set [12] the target is T5, Alkaline phosphatase, tissue-nonspecific isozyme (Homo sapiens, UniProt P05186).
T5 sequence (P05186 whole entry): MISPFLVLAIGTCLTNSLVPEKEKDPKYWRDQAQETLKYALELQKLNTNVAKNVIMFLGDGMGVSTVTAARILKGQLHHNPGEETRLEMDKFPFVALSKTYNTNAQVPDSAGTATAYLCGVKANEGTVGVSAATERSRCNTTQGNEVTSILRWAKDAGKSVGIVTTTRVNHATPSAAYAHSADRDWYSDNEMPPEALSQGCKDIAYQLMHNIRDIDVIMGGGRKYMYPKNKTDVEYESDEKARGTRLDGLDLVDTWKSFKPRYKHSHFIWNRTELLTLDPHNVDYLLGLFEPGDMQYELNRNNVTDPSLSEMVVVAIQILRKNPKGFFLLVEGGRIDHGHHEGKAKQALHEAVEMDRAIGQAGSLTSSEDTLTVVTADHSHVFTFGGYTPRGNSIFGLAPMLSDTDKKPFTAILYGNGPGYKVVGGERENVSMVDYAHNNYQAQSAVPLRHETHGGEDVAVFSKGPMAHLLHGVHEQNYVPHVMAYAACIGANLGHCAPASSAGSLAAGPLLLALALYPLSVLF
The data set is described as follows: TNAP enzyme inhibition by screening hits, dose response, selectivity assay for mouse IAP inhibitor project, biochemical, human TNAP, uHTS hits (AID 488906). It counts as functional.

Data set [13] has as its target Intestinal-type alkaline phosphatase (Homo sapiens, UniProt P09923). The data set is described as follows: inhibition of human intestinal alkaline phosphatase – biochemical, dose response (AID 488876). It counts as functional.
The target of data set [14] is T6, Voltage-gated N-type calcium channel alpha-1B subunit/Amyloid beta A4 precursor protein-binding family A member 1 (Homo sapiens, UniProt Q00975+Q02410). It counts as protein assay.
T6 sequence (Q00975 whole entry): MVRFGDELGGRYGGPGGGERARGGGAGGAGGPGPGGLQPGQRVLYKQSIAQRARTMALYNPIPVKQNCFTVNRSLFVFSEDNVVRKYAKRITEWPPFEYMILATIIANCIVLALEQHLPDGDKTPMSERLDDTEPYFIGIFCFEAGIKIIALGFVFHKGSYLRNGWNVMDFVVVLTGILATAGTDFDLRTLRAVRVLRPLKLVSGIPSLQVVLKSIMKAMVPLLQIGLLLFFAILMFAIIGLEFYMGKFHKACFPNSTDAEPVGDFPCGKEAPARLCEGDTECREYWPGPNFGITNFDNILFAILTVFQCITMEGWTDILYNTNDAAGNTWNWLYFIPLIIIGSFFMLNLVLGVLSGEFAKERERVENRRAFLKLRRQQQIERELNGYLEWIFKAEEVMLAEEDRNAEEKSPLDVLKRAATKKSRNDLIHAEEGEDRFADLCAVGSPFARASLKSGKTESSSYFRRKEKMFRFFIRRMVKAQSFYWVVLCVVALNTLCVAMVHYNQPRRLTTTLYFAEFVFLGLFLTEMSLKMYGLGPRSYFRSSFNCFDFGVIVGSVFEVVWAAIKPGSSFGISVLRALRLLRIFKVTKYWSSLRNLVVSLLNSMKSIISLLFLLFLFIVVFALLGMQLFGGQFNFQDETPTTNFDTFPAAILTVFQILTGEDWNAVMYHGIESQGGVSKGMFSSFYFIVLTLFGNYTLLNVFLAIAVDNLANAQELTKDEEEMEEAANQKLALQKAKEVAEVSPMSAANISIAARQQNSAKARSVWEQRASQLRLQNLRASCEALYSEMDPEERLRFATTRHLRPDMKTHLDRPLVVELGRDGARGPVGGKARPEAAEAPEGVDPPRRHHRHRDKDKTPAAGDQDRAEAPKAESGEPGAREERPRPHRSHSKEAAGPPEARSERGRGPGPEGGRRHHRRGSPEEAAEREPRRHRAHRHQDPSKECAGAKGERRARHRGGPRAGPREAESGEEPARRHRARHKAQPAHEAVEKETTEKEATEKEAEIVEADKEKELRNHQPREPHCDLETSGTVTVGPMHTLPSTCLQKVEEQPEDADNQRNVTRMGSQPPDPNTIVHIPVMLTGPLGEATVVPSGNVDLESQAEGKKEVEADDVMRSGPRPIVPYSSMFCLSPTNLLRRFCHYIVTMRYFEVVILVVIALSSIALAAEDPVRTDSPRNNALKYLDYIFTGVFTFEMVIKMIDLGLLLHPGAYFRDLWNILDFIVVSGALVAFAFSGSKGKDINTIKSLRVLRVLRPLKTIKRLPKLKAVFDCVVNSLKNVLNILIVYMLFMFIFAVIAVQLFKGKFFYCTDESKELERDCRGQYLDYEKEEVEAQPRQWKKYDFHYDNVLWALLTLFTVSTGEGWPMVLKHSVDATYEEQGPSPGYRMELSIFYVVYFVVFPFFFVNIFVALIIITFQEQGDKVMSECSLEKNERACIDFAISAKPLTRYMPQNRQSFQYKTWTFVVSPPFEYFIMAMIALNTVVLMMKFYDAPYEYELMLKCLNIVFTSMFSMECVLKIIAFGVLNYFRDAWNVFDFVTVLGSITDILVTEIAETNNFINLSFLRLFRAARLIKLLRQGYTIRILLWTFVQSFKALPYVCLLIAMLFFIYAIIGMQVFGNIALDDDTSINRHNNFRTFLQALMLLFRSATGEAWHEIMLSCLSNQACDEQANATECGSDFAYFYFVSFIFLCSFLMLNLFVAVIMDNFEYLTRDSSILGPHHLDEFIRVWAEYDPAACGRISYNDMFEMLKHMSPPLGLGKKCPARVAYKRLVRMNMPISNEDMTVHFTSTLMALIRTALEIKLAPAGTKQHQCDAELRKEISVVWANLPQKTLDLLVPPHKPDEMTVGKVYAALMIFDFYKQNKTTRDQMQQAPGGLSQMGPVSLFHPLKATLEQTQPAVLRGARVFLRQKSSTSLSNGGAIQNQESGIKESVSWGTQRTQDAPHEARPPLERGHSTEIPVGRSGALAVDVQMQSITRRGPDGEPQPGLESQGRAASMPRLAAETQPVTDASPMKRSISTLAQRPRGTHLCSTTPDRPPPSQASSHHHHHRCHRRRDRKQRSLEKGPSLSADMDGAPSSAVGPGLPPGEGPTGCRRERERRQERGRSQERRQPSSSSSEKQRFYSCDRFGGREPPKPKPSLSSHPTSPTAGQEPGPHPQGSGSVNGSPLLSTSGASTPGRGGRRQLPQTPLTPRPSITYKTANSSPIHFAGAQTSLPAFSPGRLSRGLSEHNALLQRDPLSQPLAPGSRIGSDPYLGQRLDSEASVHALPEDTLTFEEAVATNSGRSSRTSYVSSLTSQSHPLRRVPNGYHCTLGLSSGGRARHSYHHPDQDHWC
T6 sequence (Q02410 whole entry): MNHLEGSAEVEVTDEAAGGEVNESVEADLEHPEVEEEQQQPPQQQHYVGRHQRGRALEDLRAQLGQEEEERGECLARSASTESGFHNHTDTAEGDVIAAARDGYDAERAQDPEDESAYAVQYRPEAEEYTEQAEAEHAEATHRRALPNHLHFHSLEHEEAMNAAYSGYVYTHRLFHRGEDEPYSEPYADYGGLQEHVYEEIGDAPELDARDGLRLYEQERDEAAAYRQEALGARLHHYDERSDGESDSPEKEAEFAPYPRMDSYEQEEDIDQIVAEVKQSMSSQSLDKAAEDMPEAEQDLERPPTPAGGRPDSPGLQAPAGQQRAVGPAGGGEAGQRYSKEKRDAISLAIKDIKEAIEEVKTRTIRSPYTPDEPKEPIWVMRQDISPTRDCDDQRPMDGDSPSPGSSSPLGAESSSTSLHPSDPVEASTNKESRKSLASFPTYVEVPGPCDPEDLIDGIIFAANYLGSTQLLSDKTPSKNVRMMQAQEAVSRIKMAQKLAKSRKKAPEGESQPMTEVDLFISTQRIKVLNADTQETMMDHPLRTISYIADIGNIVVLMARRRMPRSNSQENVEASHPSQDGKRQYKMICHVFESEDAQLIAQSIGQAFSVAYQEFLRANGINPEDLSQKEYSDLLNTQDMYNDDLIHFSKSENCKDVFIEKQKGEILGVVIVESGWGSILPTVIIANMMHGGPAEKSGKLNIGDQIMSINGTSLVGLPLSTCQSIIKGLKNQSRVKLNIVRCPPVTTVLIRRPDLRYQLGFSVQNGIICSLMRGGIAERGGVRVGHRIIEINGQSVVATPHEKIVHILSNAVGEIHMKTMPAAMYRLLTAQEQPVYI
Data set [15] deals with T6, Voltage-gated N-type calcium channel alpha-1B subunit/Amyloid beta A4 precursor protein-binding family A member 1. It counts as protein assay. This is another data set of the same source.
For data set [16], the system named is Escherichia coli. The data set can be described thus: microbe, parasite or virus in culture.
The subject of data set [17] is Vero. The data set can be described thus: cells. The class given is functional, cell-based. The following applies: Chlorocebus sabaeus.
In data set [18] the target is DNA dC->dU-editing enzyme APOBEC-3G (Homo sapiens, UniProt Q9HC16). The data set can be described thus: Dose Response confirmation of small molecule APOBEC3G DNA Deaminase Inhibitors via a fluorescence-based single-stranded DNA deaminase assay. [Related pubchem assays (depositor defined):AID493012, AID493028]. The class given is functional.
The target in data set [19] is T7, Cytochrome P450 1A2 (Homo sapiens, UniProt P05177).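 Note: PubChem cytochrome P450 panel assay, CYP1A2 panel member.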
T7 sequence (P05177 whole entry): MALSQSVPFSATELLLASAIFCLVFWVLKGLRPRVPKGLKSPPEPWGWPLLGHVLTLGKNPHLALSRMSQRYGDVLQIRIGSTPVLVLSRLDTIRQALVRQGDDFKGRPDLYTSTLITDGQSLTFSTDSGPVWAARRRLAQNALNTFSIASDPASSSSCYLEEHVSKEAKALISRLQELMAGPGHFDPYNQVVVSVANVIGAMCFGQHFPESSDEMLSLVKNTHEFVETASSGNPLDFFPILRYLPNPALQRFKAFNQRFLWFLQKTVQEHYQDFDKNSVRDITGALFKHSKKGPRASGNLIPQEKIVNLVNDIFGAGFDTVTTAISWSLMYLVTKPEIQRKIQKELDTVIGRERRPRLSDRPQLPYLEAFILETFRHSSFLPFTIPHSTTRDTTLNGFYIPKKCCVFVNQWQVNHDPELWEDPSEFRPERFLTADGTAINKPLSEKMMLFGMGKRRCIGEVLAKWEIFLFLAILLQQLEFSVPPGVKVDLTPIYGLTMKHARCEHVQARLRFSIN

The target in data set [20] is Cytochrome P450 2D6 (Homo sapiens, UniProt P10635).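 Note: CYP2D6 member of a cytochrome P450 panel assay.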
Sequence of Cytochrome P450 2D6 (P10635 whole entry): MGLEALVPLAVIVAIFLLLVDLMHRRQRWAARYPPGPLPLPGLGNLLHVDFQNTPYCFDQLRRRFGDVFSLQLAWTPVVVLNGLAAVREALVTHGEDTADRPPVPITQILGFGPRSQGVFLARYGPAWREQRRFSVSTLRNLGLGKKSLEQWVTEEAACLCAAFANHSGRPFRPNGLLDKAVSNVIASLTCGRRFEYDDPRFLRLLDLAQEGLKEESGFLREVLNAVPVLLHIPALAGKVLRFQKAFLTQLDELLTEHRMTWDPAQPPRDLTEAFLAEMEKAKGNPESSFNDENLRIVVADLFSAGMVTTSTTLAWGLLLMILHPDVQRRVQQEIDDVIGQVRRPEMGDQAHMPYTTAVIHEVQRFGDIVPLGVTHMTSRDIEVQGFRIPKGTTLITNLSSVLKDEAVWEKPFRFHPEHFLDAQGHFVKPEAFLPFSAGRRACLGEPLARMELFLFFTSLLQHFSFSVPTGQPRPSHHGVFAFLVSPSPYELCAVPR
Data set [21] deals with Cytochrome P450 2C19 (Homo sapiens, UniProt P33261). The data set is described as follows: Cytochrome panel assay with activity outcomes. Panel member name: p450-cyp2c19 Compounds with AC50 equal or less than 10 uM are considered active. The class given is functional.

Calls of active or inactive are those of the source.

Sequence of Intestinal-type alkaline phosphatase (Homo sapiens, UniProt P09923) (P09923 whole entry): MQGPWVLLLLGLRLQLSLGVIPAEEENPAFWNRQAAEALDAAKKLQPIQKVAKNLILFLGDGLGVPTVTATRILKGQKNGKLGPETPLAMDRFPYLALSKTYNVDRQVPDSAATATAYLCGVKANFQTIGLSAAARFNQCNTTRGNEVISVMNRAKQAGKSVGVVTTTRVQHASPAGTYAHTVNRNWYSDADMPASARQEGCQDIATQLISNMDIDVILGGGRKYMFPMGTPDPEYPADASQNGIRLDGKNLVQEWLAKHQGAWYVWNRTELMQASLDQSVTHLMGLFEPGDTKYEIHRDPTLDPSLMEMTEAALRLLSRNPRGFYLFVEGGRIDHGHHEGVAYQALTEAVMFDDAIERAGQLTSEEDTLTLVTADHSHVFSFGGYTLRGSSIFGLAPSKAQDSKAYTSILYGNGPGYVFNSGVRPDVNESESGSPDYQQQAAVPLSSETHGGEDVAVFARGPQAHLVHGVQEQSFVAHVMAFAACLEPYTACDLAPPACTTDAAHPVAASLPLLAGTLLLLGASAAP

Consider `O=C(CSc1ccc2ccccc2c1Br)Nc1cccc(S(=O)(=O)NC2=NCCCCC2)c1`, for which the AC50 (commonly the midpoint of the concentration-response curve, whichever way the signal moves) in [1] is 1.92 µM (active); in data set [2] it was 48 µM (active).
For `COc1cccc(S(=O)(=O)NCc2ccc(C(=O)Nc3ccc(Cl)cc3)cc2)c1` the same measures were 35 µM (active) and 102 µM (active).
As to `CC1CCN(C(=O)c2cc3nc(-c4ccccc4)cc(-c4ccccc4)n3n2)CC1`, the AC50 was > 100 µM (inactive) in data set [3] and 19.1 µM (active) in data set [4].
As for `S=c1[nH]nc(-c2ccccc2)o1`, the EC50 (commonly the concentration needed to bring the measured effect to its halfway point) in [5] is 16.2 µM (inactive); in data set [6], > 79.4 µM (not active); in data set [7], 8.1 µM (active). For the same molecule, the AC50 in [3] was 13.3 µM (active).
As for `Cc1cccc(-n2sc3ccccc3c2=O)c1`, the concentration for half-maximal inhibition (IC50) (in general, the concentration at which inhibition is half-maximal) was 5.29 µM (active) in data set [8], 22.3 µM (active) in data set [9] and 2.73 µM (inactive) in [10].
Regarding `Cc1ccc(C)c(NS(=O)(=O)c2ccc3[nH]c(=O)oc3c2)c1`, the figures for the 50% inhibitory concentration (IC50) in [11], in data set [12] and in data set [13] were 15.7 µM (active), > 100 µM (inactive) and > 100 µM (inactive), respectively.
`Cc1cccnc1NC(=S)Nc1ccc(F)cc1F`: the half-maximal inhibitory concentration (IC50) in [14] was 11.5 µM (active); in data set [15], > 50 µM (inactive).
Take `CCOC(=O)c1sc(-c2ccccc2)cc1NC(=O)Nc1ccc([N+](=O)[O-])cc1`: the AC50 in data set [16] is 35 µM (active).
Regarding `Cc1cccc(-n2sc3cc(F)ccc3c2=O)c1C`, the IC50 is 22.7 µM (active) in data set [8], 18.3 µM (active) in data set [9] and 6.54 µM (inactive) in [10].
Turning to `CCOC(=O)C1(Cc2cccc(F)c2)CCN(C2CCOCC2)CC1`, the AC50 in [16] was 35.1 µM (active).
Take `CCCn1cnc2c(SCc3ccccc3Cl)nc(N)nc21`: the IC50 in [17] is > 25 µM (active).
As to `Cc1c(Cl)cccc1-n1sc2cc([N+](=O)[O-])cc(OCC(F)(F)F)c2c1=O`, the values for the IC50 in [8], in data set [9] and in [10] were 3.03 µM (active), 9.06 µM (active) and 0.555 µM (active), respectively.
Turning to `CCOC(=O)c1sc(NC(=O)C(C)C)c(C#N)c1C`, the IC50 in data set [18] was 39.3 µM (active).
As to `COc1ccc2c(c1)c(CC(=O)O)c(C)n2C(=O)c1ccccc1`, the AC50 is 12.6 µM (inconclusive) in [19] and “inconclusive” in [20].
As for `CCOC(=O)c1cc(-c2ccc(F)cc2)nc2c1c(=O)[nH]c(=O)n2Cc1ccccc1`, the results for the IC50 in data set [14] and in [15] were > 56.8 µM (not active) and > 50 µM (inactive), respectively.
As to `CN(C)CCNC(=O)C1CCCNC1=O` (stereo unspecified), the half-maximal activity concentration (AC50) result in data set [21] and in data set [20] was “inconclusive” in each case.
On to `FC(F)Oc1ccc(NC(S)=NC2CCSc3ccccc32)cc1` (stereo unspecified), for which the results for the IC50 in data set [11], in [12] and in data set [13] were 5.64 µM (active), > 100 µM (inactive) and > 100 µM (inactive), respectively.
As for `COc1ccc(N2CC(C(=O)Nc3cc(C)on3)CC2=O)cc1` (stereo unspecified), the AC50 entry in data set [20] is “inconclusive”.
On to `C=CCn1/c(=N/C(=O)c2ccc(S(=O)(=O)N3CCCc4ccccc43)cc2)sc2cc(S(N)(=O)=O)ccc21`, for which the values for the AC50 in data set [1] and in data set [2] were 2.01 µM (active) and 84.8 µM (active), respectively.
Take `COCc1c(C(=O)N/N=C/C2CC=CCC2)nnn1-c1nonc1N` (stereo unspecified): the AC50 in data set [4] was 29.9 µM (active).
